Here are results for three compounds from patent publication US7842703B2, “Substituted benzofused derivatives and their use as vanilloid receptor ligands” (Glenmark Pharmaceuticals S.A., priority 2005, dated 2010).

Series [1] has as its target T1, Human TRPV1 expressing CHO cells (Homo sapiens, UniProt Q8NER1).
T1 construct: expressed in transfected cells; host or cells: CHO cells under G-418 selection
Nature of the series: Screening for TRPV1 antagonist using the 45Calcium uptake assay (inhibition of capsaicin induced cellular uptake of radioactive calcium). The format is cell-based. To be noted: for inhibition at 1 µM: CHO, test compound 1 μM, capsaicin 250 nM, relative to maximum ^45Ca uptake induced by capsaicin alone; for IC50: inhibition of capsaicin (250 nM) induced ^45Ca uptake.

T1 sequence (Q8NER1 whole entry): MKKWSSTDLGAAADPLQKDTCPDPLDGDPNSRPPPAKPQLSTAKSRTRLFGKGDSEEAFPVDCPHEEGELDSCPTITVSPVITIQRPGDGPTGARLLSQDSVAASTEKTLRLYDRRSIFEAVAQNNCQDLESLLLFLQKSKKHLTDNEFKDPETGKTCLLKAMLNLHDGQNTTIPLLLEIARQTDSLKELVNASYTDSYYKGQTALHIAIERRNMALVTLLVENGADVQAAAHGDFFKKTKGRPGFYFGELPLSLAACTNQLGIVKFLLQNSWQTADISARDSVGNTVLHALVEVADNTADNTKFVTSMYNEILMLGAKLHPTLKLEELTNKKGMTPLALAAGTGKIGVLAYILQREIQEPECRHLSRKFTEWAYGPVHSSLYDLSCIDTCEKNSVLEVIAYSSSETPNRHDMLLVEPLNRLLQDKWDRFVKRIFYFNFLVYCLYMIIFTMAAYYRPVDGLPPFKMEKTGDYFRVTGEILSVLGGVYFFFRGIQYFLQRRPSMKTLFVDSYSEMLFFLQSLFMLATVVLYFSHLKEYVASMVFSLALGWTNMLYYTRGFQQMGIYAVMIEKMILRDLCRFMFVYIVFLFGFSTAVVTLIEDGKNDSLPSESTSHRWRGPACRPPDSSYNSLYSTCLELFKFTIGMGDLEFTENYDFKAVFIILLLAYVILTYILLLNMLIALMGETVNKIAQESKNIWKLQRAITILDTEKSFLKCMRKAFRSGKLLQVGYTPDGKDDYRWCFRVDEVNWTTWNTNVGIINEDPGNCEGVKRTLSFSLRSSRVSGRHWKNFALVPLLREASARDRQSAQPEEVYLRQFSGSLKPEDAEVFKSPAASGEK

For the compound `S=C(Nc1cccc2cnccc12)NC1CC2(CCC2)Oc2ccccc21` (stereo not shown) [Example 80, N′-isoquinolin-5-yl-N-3,3′,4,4′-tetrahydro-2′H-spiro[chromene-2,1′-cyclobutan]-4-ylthiourea(N′-isoquinolin-5-yl-N-3,4-dihydro-2H-spiro[chromene-2,1′-cyclobutan]-4-ylthiourea)], the melting point – broadly, the temperature, or range, at which the solid turns liquid – was in the range of 187 to 188 °C. Also, in series [1], the inhibition (in general, how much of the control response was suppressed) at 1 µM is above 50% and the half-maximal inhibitory concentration (IC50) (in general, the concentration that gives 50% inhibition) turned out to be 49 nM.
`O=C(Nc1cccc2cnccc12)NC1CC2(CCC2)Oc2c(O)cccc21` (racemic) [Example 61, (±) 1-(3,4-Dihydro-8-hydroxy-spiro[2H-1-benzopyran-2,1′-cyclobutane]-4-yl)-3-(isoquinolin-5-yl)urea] gave a melting point of 246 to 247 °C. Moreover, in series [1], the inhibition at 1 µM is above 50% and the half-maximal inhibitory concentration (IC50) turned out to be 775 nM.
Consider `O=C(Nc1cccc2cnccc12)NC1CC2(CCC2)Oc2ccc(F)cc21` (single isomer, unassigned; (-)) [Example 44, (−) 1-(3,4-Dihydro-6-fluorospiro[2H-1-benzopyran-2,1′-cyclobutane]-4-yl)-3-(isoquinolin-5-yl)urea], for which, in series [1], the inhibition at 1 µM was below 50%.
